From patent US10947213B1 (Merck Patent GmbH, priority 2015, dated 2021)
Structures can show the parent of a compound that is named as a salt.

target: T1, TLR7/NFKb HEK cells (Homo sapiens, UniProt Q9NYK1); assay: HEK Cell Assay (TLR7/NFKb reporter, Steady-Glo luciferase readout); type: cell-based; conditions: 30 min compound preincubation, then R*48 agonist for 5 hours, read-out: Potency
T1 construct: expressed in transfected cells; host or cells: HEK cells (TLR7/NFKb reporter line)
T1 sequence (Q9NYK1 27-1049): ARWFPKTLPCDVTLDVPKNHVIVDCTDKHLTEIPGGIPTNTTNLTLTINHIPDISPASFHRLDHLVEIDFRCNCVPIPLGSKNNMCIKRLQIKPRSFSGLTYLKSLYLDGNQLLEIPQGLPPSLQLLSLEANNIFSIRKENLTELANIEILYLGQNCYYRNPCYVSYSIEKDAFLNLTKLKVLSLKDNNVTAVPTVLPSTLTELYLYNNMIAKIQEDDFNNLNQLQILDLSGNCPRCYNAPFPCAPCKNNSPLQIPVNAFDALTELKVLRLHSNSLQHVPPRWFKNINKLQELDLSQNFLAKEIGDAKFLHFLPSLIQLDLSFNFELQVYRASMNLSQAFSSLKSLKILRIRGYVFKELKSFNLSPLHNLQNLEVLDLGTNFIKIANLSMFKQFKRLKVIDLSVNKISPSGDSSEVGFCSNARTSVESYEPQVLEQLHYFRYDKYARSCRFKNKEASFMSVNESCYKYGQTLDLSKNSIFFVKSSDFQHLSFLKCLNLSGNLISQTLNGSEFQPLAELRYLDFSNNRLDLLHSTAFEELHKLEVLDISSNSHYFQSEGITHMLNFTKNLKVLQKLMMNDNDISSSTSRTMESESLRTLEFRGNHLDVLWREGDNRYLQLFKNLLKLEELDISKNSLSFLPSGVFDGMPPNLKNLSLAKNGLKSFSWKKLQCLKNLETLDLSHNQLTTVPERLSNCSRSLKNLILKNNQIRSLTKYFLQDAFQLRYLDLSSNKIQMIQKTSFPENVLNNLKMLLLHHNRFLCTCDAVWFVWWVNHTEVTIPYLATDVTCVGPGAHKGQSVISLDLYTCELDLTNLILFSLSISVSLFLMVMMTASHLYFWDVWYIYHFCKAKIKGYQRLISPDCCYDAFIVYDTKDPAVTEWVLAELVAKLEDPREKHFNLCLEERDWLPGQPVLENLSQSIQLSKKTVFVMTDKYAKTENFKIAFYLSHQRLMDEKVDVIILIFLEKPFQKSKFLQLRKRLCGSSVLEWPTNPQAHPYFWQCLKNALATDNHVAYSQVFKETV
Outline: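 Steady-Glo luminescence after 5 h stimulation with R*48 agonist, following 30 min compound preincubation. Assay run in HEK cells carrying a TLR7/NFKb luciferase reporter, plated at 5000 cells/well and grown 24 h at 37° C (10% CO2) before treatment.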

Compound | IC50 [µM]
CC(C)[C@@H](N)C(=O)N[C@@H]1C[C@H](C)CN(c2ccnc3nccnc23)C1 [Compound 104, (2R)-2-amino-3-methyl-N-[(3R,5S)-5-methyl-1-[pyrido[2,3-b]pyrazin-8-yl]piperidin-3-yl]butanamide] | > 10
C[C@H]1C[C@@H](NCC(=O)N2CCC2)CN(c2ccc(C(F)(F)F)c3ncccc23)C1 [Compound 568, 1-Azetidin-1-yl-2-[(3R,5S)-5-methyl-1-(8-trifluoromethyl-quinolin-5-yl)-piperidin-3-ylamino]-ethanone] | < 1
CN[C@@H]1C[C@H](C)CN(c2ccnc3nccnc23)C1 [Compound 17, (3R,5S)—N,5-dimethyl-1-(pyrido[2,3-b]pyrazin-8-yl)piperidin-3-amine] | > 10
N[C@H]1C[C@@H](C2CC2)CN(c2ccc(C(F)(F)F)c3ncccc23)C1 (relative stereo) [Compound 331, cis-5-cyclopropyl-1-[8-(trifluoromethyl)quinolin-5-yl]piperidin-3-amine] | < 1
C[C@H]1C[C@@H](NC(=O)CC(F)(F)F)CN(c2ccnc3nccnc23)C1 [Compound 120, 3,3,3-trifluoro-N-[(3R,5S)-5-methyl-1-[pyrido[2,3-b]pyrazin-8-yl]piperidin-3-yl]propanamide] | > 10
C[C@H]1C[C@@H](NC(=O)CN2CCOCC2)CN(c2ccc(Cl)c3ncccc23)C1 [Compound 262, N-[(3R,5S)-1-(8-chloroquinolin-5-yl)-5-methylpiperidin-3-yl]-2-(morpholin-4-yl)acetamide] | < 1
CCN(CC)CCNCC1CCN(c2c(C)c(C)nc3ccc(F)cc23)CC1 [Compound 385, N,N-Diethyl-N′-[1-(6-fluoro-2,3-dimethyl-quinolin-4-yl)-piperidin-4-ylmethyl]-ethane-1,2-diamine] | 1 to 10
N#Cc1ccc(N2CC(N)CC(C(F)(F)F)C2)c2cccnc12 (single isomer, unassigned) [Compound 73] | < 1
CCN(CC)CCNC(=O)C1CCN(c2ccc(C#N)c3nccnc23)CC1 [Compound 432, 1-(8-Cyano-quinoxalin-5-yl)-piperidine-4-carboxylic acid (2-diethylamino-ethyl)-amide] | < 1
C[C@H]1C[C@@H](NC(=O)CN2CCOCC2)CN(c2ccc(F)c3ncccc23)C1 [Compound 470, N-[(3R,5S)-1-(8-Fluoro-quinolin-5-yl)-5-methyl-piperidin-3-yl]-2-morpholin-4-yl-acetamide] | 1 to 10
C[C@H]1C[C@@H](NC(=O)CC(C)(C)CN)CN(c2ccc(C(F)F)c3nccnc23)C1 [Compound 327, 4-amino-N-[(3R,5S)-1-[8-(difluoromethyl)quinoxalin-5-yl]-5-methylpiperidin-3-yl]-3,3-dimethylbutanamide] | < 1
C[C@H]1C[C@@H](NC2CCN(C)C2=O)CN(c2ccc(C#N)c3nccnc23)C1 (single isomer, unassigned) [Compound 125] | < 1
C[C@H]1C[C@@H](NC(=O)CC(C)(C)CN)CN(c2ccc(C(F)F)c3ncccc23)C1 [Compound 315, 4-amino-N-[(3R,5S)-1-[8-(difluoromethyl)quinolin-5-yl]-5-methylpiperidin-3-yl]-3,3-dimethylbutanamide] | < 1
C[C@H]1C[C@@H](N)CN(c2ccnc3nccnc23)C1 [Compound 10, (3R,5S)-5-methyl-1-(pyrido[2,3-b]pyrazin-8-yl)piperidin-3-amine] | < 1
CC(C)[C@H](O)C(=O)N[C@@H]1C[C@H](C)CN(c2ccc(C(N)=O)c3ncccc23)C1 [Compound 181, 5-[(3R,5S)-3-[(2S)-2-hydroxy-3-methylbutanamido]-5-methylpiperidin-1-yl]quinoline-8-carboxamide] | > 10
CCN(CC)C1CCN(C(=O)C2CCN(c3ccnc4nccnc34)CC2)CC1 [Compound 2, (4-(diethylamino)piperidin-1-yl)(1-(pyrido[2,3-b]pyrazin-8-yl)piperidin-4-yl)methanone] | 1 to 10

Compound | IC50 [µM]
COC(C)C(=O)N[C@@H]1C[C@H](C)CN(c2ccc(C#N)c3nccnc23)C1 (single isomer, unassigned) [Compound 158] | 1 to 10
C[C@H]1C[C@@H](NC(=O)CN2CCCN(C)CC2)CN(c2ccc(C(F)(F)F)c3nccnc23)C1 [Compound 362, 2-(4-methyl-1,4-diazepan-1-yl)-N-[(3R,5S)-5-methyl-1-[8-(trifluoromethyl)quinoxalin-5-yl]piperidin-3-yl]acetamide] | < 1
Cn1ncc2c(N3CCC(C(=O)NCCN4CCCCC4)CC3)ncnc21 [Compound 3, 1-(1-methyl-1H-pyrazolo[3,4-d]pyrimidin-4-yl)-N-(2-(piperidin-1-yl)ethyl)piperidine-4-carboxamide] | 1 to 10
O=C(N[C@@H]1CNC[C@@H]1F)C1CCN(c2ccc(C(F)(F)F)c3ncccc23)CC1 [Compound 464, 1-(8-Trifluoromethyl-quinolin-5-yl)-piperidine-4-carboxylic acid ((3R,4S)-4-fluoro-pyrrolidin-3-yl)-amide hydrochloride] | < 1
C[C@H]1C[C@@H](NC(=O)CN(C)C)CN(c2ccc(C(F)(F)F)c3ncccc23)C1 [Compound 199, 2-(dimethylamino)-N-[(3R,5S)-5-methyl-1-[8-(trifluoromethyl)quinolin-5-yl]piperidin-3-yl]acetamide] | < 1
C[C@H]1C[C@@H](NC(=O)CC2CCN(CC(F)F)CC2)CN(c2ccc(C#N)c3nccnc23)C1 [Compound 234, N-[(3R,5S)-1-(8-cyanoquinoxalin-5-yl)-5-methylpiperidin-3-yl]-2-[1-(2,2-difluoroethyl)piperidin-4-yl]acetamide] | < 1
C[C@H]1C[C@@H](NC(=O)[C@@H](N)CO)CN(c2ccc(C(F)(F)F)c3ncccc23)C1 [Compound 476] | < 1
CC(C(=O)N[C@@H]1C[C@H](C)CN(c2ccc(C(F)F)c3nccnc23)C1)N1CC(F)(F)C1 (stereo partly drawn) [Compound 323, 2-(3,3-difluoroazetidin-1-yl)-N-[(3R,5S)-1-[8-(difluoromethyl)quinoxalin-5-yl]-5-methylpiperidin-3-yl]propanamide] | 1 to 10
CN1CCC(NC(=O)C2CN(c3ccc(C#N)c4ncccc34)CC(F)(F)C2)CC1 (centres unmarked) [Compound 530, 1-(8-Cyano-quinolin-5-yl)-5,5-difluoro-piperidine-3-carboxylic acid (1-methyl-piperidin-4-yl)-amide] | < 1
CC1CC(N)CN(c2ccc(F)c3nccnc23)C1 (single isomer, unassigned) [Compound 340] | 1 to 10
C[C@@H]1C[C@@H](CN2CCC(N3CCOCC3)CC2)CN(c2ccc(C(F)(F)F)c3ncccc23)C1 (relative stereo) [Compound 536, trans-5-[3-Methyl-5-(4-morpholin-4-yl-piperidin-1-ylmethyl)-piperidin-1-yl]-8-trifluoromethyl-quinoline] | 1 to 10
CC1(C)C[C@@H](N)CN(c2ccnc3nccnc23)C1 [Compound 80, (R)-5,5-dimethyl-1-(pyrido[2,3-b]pyrazin-8-yl)piperidin-3-amine] | 1 to 10
C[C@H]1C[C@@H](NC(=O)CN2CC(N)C2)CN(c2ccc(C(F)(F)F)c3nccnc23)C1 [Compound 361, 2-(3-aminoazetidin-1-yl)-N-((3R,5S)-5-methyl-1-(8-(trifluoromethyl)quinoxalin-5-yl)piperidin-3-yl)acetamide] | < 1
CCN(C)[C@H](C)C(=O)N[C@@H]1C[C@H](C)CN(c2ccc(C#N)c3nccnc23)C1 [Compound 98, (2R)—N-[(3R,5S)-1-(8-cyanoquinoxalin-5-yl)-5-methylpiperidin-3-yl]-2-[ethyl(methyl)amino]propanamide] | < 1
C[C@H]1C[C@@H](NC(=O)C2CCN(C)C2)CN(c2ccc(C(F)(F)F)c3nccnc23)C1 (stereo partly drawn) [Compound 258, 1-methyl-N-[(3R,5S)-5-methyl-1-[8-(trifluoromethyl)quinoxalin-5-yl]piperidin-3-yl]pyrrolidine-3-carboxamide] | < 1
C[C@H]1C[C@@H](NC(=O)C2CC(F)(F)C2)CN(c2ccc(C(F)F)c3nccnc23)C1 [Compound 329, N-[(3R,5S)-1-[8-(difluoromethyl)quinoxalin-5-yl]-5-methylpiperidin-3-yl]-3,3-difluorocyclobutane-1-carboxamide] | 1 to 10
